What was measured:
Protein binding in vitro = format: in vitro ADME; settings: human
[1] = Toxicological studies in the rat; format: in vivo
Excerpt: The toxicological evaluations of Compound A included studies in the rat and cynomolgus monkey (non-human primate [NHP]) and should be relevant to assessing potential human risk, as the STING pathway, the target of Compound A, is conserved across species.
The non-good laboratory practice (GLP) studies in the rat and NHP covered a broad range of doses and regimens. The objective of these studies was to evaluate the effects of Compound A following multiple ascending doses, single doses, and multiple doses.

B16F10 melanoma = B16F10 melanoma syngeneic tumor model; format: in vivo, C57BL/6 mice
Procedure: To assess therapeutic activity of Compound A, C57BL/6 immune competent mice received subcutaneous implants of B16F10 melanoma cells on the right flank. Five days later, when tumor volumes were between 50 and 100 mm^3, the mice were intratumorally dosed with 0.1, 0.3, or 1.0 µg (equivalent to 0.005, 0.015, or 0.05 mg/kg) of Compound A alone, or in combination with 200 µg of PD-L1 antibody (clone 10F.9G2 available from Bio-X-Cell (catalog # BE0101)). Dosing was repeated every 3-4 days for 4 total doses. […] Once again, the effect was enhanced when Compound A was administered together with the PD-L1 antibody.

[2] = Cynomolgus monkey toxicity and toxicokinetics, subcutaneous (Phases I-III, priming dose); format: in vivo, cynomolgus monkeys
Procedure: (§1) Male and female cynomolgus monkeys were assigned to groups and doses of Compound A were administered. Animals were dosed via subcutaneous injection at a volume of 2 mL/kg. The vehicle control article/diluent was phosphate-buffered saline (PBS).

[3] = test system: IFNα, IL-6, TNFα and other cytokines; assay: Plasma cytokine levels in cynomolgus monkeys; format: in vivo
Procedure: as §1
Escalation of Compound A dose levels was tolerated up to 3.0 mg/kg/dose, with findings limited to increased body temperature and elevated IFNα, IL-6, and TNFα cytokine levels. IFNα, TNFα, and IL-6 levels were measured at 3, 6, and 12 hours post-dosing. Dose related but variable changes were observed. […] TNFα levels increased at 3 hours in the 1 mg/kg group. […] The cytokine responses are consistent with the predicted STING pathway activation.

## Nc1nc2c(ncn2[C@@H]2O[C@@H]3COP(=O)(O)OC4C(O)[C@H](n5cnc6c(N)ncnc65)O[C@@H]4COP(=O)(O)OC2C3OCC(F)(F)F)c(=O)[nH]1 (stereo partly drawn) [Compound A]
Protein binding in vitro
  fraction unbound: 0.511
[1]; 3.0 mg/kg dose level
  mortality: Mortality was also seen
[1]; GLP rat study, high doses group 10 and 30 mg/kg
  mortality: Mortality was seen
[1]; mid and high dose levels, rat study
  moribundity and death: Moribundity and death was seen
[1]; rat and NHP toxicology studies, multiple dose
  toxicokinetic findings: no sex related differences, dose proportionality, and no accumulation
[1]; rat, highest dose levels
  cause of deaths: pulmonary edema
B16F10 melanoma
  efficacious dose range (dose-dependent): 0.1 to 10 µg
B16F10 melanoma; 0.005 mg/kg
  tumor growth and survival: sufficient to inhibit tumor growth and prolong survival
B16F10 melanoma; Compound A 0.1, 0.3 or 1.0 µg intratumoral, PD-L1 antibody 200 µg, FIG. 3 Panels A-C
  tumor volume: significantly reduced tumor volume at all dose levels
B16F10 melanoma; Compound A 0.1, 0.3 or 1.0 µg intratumoral, PD-L1 antibody 200 µg, FIG. 3 Panels E-G
  survival time: significantly increased the survival time
B16F10 melanoma; intratumoral
  tumor growth inhibition: highly effective in inhibiting tumor growth
B16F10 melanoma; intratumoral, compared to controls
  tumor growth and survival: dose-dependent suppression of tumor growth and prolonged survival
B16F10 melanoma; intratumoral, every 3-4 days, 4 doses (0.1 µg/mice)
  lowest dose with decreased tumor growth and prolonged survival: 0.005 mg/kg
B16F10 melanoma; subcutaneous
  anti-tumor efficacy: also effective
[2]; 10 mg/kg/dose, Phase I
  morbidity: Morbidity was observed within 1 day
[2]; 0.3 to 3 mg/kg/day, Day 1 of Phase II
  exposure (mean Cmax, AUC0-2, AUC0-8, AUC0-24) vs dose: generally dose-proportional
[2]; 0.6 or 1.0 mg/kg/day
  compound-related findings: limited to a transient body temperature increase and mild to moderate clinical and anatomic pathology findings
[2]; 3 weekly doses of 0.6 mg/kg without a priming dose
  tolerability: tolerated
[2]; 3 weekly doses of 1.0 mg/kg/day preceded by a priming dose of 0.1 mg/kg
  tolerability: tolerated
[2]; Phase I, subcutaneous dose escalation
  tolerated dose on escalation: up to 3.0 mg/kg/dose
[2]; Phase II, 3 mg/kg in naïve animals
  tolerability: not tolerated and led to clinical observations of morbidity or death within 1 day of dosing
[2]; Phase II, 3 weekly administrations of 0.3 mg/kg
  tolerability: tolerated
[2]; Phase III, three weekly doses of 0.6 or 1.0 mg/kg/day
  survival of animals: survived until scheduled sacrifice
[2]; monkeys
  sex differences in mean Cmax, AUC0-2, AUC0-8, AUC0-24: less than 2 fold
[2]; multiple doses of 0.3 mg/kg/day
  accumulation: No accumulation
[2]; naïve animals
  dose not tolerated (acute morbidity and/or death): ≥ 3.0 mg/kg
[2]; ≥ 3.0 mg/kg, naïve animals
  cause of acute morbidity and/or death: pulmonary edema
[3]; 1 mg/kg and 3 mg/kg groups, 3 and 6 hours post dosing
  IFNα levels: Moderate levels of IFNα
[3]; 1 mg/kg group, 3 hours
  TNFα levels: increased
[3]; 3 mg/kg and 10 mg/kg groups
  TNFα levels: Lower levels of TNFα
[3]; 3 mg/kg and 10 mg/kg, 12 hours postdose
  IL-6 increases: persisted at 12 hours postdose
[3]; NHP, non-GLP studies of Example 2
  cytokine levels, time course: increases in the first 3-6 hours with return to baseline in most cases by 6-24 hours
[3]; all groups, 3 and 6 hours post dosing
  plasma IL-6 levels: Increases in plasma IL-6 levels

Reference: patent publication US20230270773A1, “METHODS OF TREATING CANCER WITH A STING AGONIST” (Immunesensor Therapeutics, Inc., priority 2019, published 2023)
